Reference: paper PMC10478803, “Contributions of the N-terminal flanking residues of an antigenic peptide from the Japanese cedar pollen allergen Cry j 1 to the T-cell activation by HLA-DP5” (International Immunology, 2023)
“Also recorded” adds a separate entry of the source. Each block holds one molecule with its values, some of them ahead of it.

How the values were obtained:
[1] = tested on: HLA-DP5 expressed on mDC1 cells; assay: Cell-surface peptide-display assay on HLA-DP5-expressing mDC1 cells; conditions: 3.5 h at 37°C
CD4^+ T cells = assay: CFSE assay of CD4^+ T-cell proliferation in PBMCs of HLA-DP5^+ CP patients; type: cell-based, human; conditions: PBMCs from HLA-DP5^+ CP patients
Protocol: Peripheral blood was obtained from HLA-DP5^+ CP patients. Peripheral blood mononuclear cells (PBMCs) were isolated by a density gradient technique, using Ficoll-Paque PLUS. The research protocol for collecting and using PBMCs from allergic patients was approved by the Institutional Review Board of Kyushu University.
The CFSE assay was performed as described previously ([24]). Briefly, PBMCs (1.0 × 10^7 cells ml^−1 in PBS) were incubated for 10 min with 5 μM CFSE (Molecular Probes). Staining was terminated by adding PBS containing 5% pooled human serum, and after the cells were washed three times in PBS containing 1% pooled human serum, they were resuspended in culture medium (RPMI-1640 containing 5% pooled human serum) at 2.0 × 10^6 cells ml^−1. Stained cells (2.0 × 10^6 cells well^−1, 1 ml) were cultured in 24-well plates with medium alone, pCj1 (final concentration, 10 μg ml^−1), or NF-pCj1 (10 μg ml^−1). After 7 days, the cells treated with each antigen were pooled, washed in PBS, and stained with anti-human CD4-allophycocyanin (IgG1, clone RPA-T4, BioLegend) and 7-amino-actinomycin D (7-AAD) (BD Pharmingen). Antigen-specific, viable CD4^+ T cells were identified as 7AAD^−, CD4^+, CFSE^dim cells, and the proliferation levels of these antigen-specific CD4^+ T cells were examined in each experiment.

[2] = tested on: mDC1 cells (mouse antigen-presenting dendritic cell line 1); assay: Uptake of TAMRA-labeled NF-pCj1 into mDC1 cells; conditions: TAMRA MFI, 0.25–4 μM, 3.5 h at 37°C, flow cytometry
[3] = tested on: TCR(SU3–3)-TG40 and TCR(NM-4)-TG40 cells; assay: IL-2 production assay with HLA-DP5-expressing mDC1 cells; conditions: ELISA
[4] = tested on: TCR(SU3–2)-TG40, TCR(SU3–3)-TG40, TCR(NM-4)-TG40, and TCR(NM-7)-TG40 cells; assay: CD137^+ response of TCR-transfected TG40 cells; type: cell-based, mouse; conditions: in the presence of HLA-DP5-expressing cells
Protocol: (§1) Cloning of CD4^+ T cells was performed as described previously ([23]). A single, viable (7AAD^–), CD4^+, CFSE^dim cell was sorted into each well of a 96-well plate, which contained 100 μl of culture medium with feeder cells and cytokines, as described below. Irradiated (30 Gy) peptide-pulsed PBMCs (1.0 × 10^5) isolated from unrelated DPB1*05:01^+ donors were used as feeder cells in the cloning plates. Pooled human serum (5%) and IL-2 (100 U ml^−1) (Peprotech) were added at the indicated final concentrations to AIM-V medium (Life Technologies). Cells were fed every 7 days with fresh cytokine and peptide-pulsed PBMCs. Growing clones were identified by visual inspection, expanded into […] plates, and then tested for antigen specificity by ^3H-thymidine incorporation and cytokine production assays, using HLA-DP5 transfected K562 cells as antigen-presenting cells (APCs). HLA-DP5-K562 cells were kindly provided by Dr H. Sugiyama, Osaka University. CD4^+ T-cell clones were stained with a PE-conjugated anti-human CD4 monoclonal antibody (mAb), and single cells were sorted into MicroAmp reaction tubes. […]
(§2) Fig. 4. […] HLA-restriction of T-cell clones was determined by addingvarious monoclonal antibodies (mAbs): anti-HLA-DR mAb (L243, BioLegend), anti-HLA-DQ mAb (SPV-L3, Abcam) or anti-HLA-DP mAb (B7/21, Abcam), at a final concentration of 10 μg ml^−1. […]

[5] = tested on: CD4^+ T-cell clones (SU3–2, SU3–3, NM-4, and NM-7); assay: Cytokine production by T-cell clones; type: cell-based, human; conditions: HLA-DP5-transfected K562 cells as APCs, 24 h, Bio-Plex
Protocol: as §1, with “(APCs).” for “(APCs). HLA-DP5-K562 cells were kindly provided by Dr H. Sugiyama, Osaka University. CD4^+ T-cell clones were stained with a PE-conjugated anti-human CD4 monoclonal antibody (mAb), and single cells were sorted into MicroAmp reaction tubes.”
Fig. 4. […] HLA-restriction of T-cell clones was determined by addingvarious monoclonal antibodies (mAbs): anti-HLA-DR mAb (L243, BioLegend), anti-HLA-DQ mAb (SPV-L3, Abcam) or anti-HLA-DP mAb (B7/21, Abcam), at a final concentration of 10 μg ml^−1. […] After 24 h, culture supernatants were collected and cytokine levels were measured using the Bio-Plex system (Bio-Rad). […] The T-cell surface activation marker CD137 of TCR(SU3–3)-TG40 and TCR(NM-4)-TG40 (GFP^+ 7AAD^− gated) was analyzed by flow cytometry. […]

[6] = tested on: CD4^+ T-cell clones (SU3–2, SU3–3, NM-4, and NM-7); assay: ^3H-thymidine incorporation assay of T-cell clone proliferation; type: cell-based, human; conditions: HLA-DP5-positive allogenic irradiated PBMCs as APCs
Protocol: as §1, with “(APCs).” for “(APCs). HLA-DP5-K562 cells were kindly provided by Dr H. Sugiyama, Osaka University. CD4^+ T-cell clones were stained with a PE-conjugated anti-human CD4 monoclonal antibody (mAb), and single cells were sorted into MicroAmp reaction tubes.”
T-cell clones were tested for antigen specificity, using the ^3H-thymidine incorporation assay. […] The cells were then harvested and the incorporated radioactivity was measured by β-scintillation counting. […]
as §2

[7] = molecular target: pCj1–HLA-DP5^ec (extracellular regions of HLA-DP5 with the nine-residue core peptide pCj1 fused to the β chain) (human | Cryptomeria japonica) (UniProt P18632); assay: SPR
[8] = molecular target: NF-pCj1–HLA-DP5^ec (HLA-DP5α protein and NF-pCj1–HLA-DP5β fusion protein, extracellular regions) (human | Cryptomeria japonica) (UniProt P18632); assay: SPR
[9] = molecular target: T1, Cry j 1 (NF-pCj1, NF[WT]-pCj1) peptide on HLA-DPA1*02:02 / HLA-DPB1*05:01 (human); assay: cytokine release
T1 peptide: DKSMKVTVAFNQF

[10] = molecular target: T2, Cry j 1 (pCj1) peptide on HLA-DPA1*02:02 / HLA-DPB1*05:01 (human); assay: activation reporter or marker
T2 peptide: KVTVAFNQF

[11] = molecular target: T2, Cry j 1 (pCj1) peptide on …; assay: cytokine release
[12] = molecular target: T1, Cry j 1 (NF-pCj1, NF[WT]-pCj1) peptide …; assay: Kd or kinetics

Molecule: DEEMKVTVAFNQF-GPN-EG2-TAMRA
effect of NF mutations on amount of cell-surface displayed peptide (in words) ([1]; 1 μM, same peptide dose and HLA-DP5 surface expression, Alexa647 MFI): halved the amounts of the cell-surface displayed peptide

Molecule: KVTVAFNQF [pCj1]
CD4^+ T-cell proliferation and clone establishment (in words) (CD4^+ T cells): some proliferation; also recorded: it was impossible to maintain the cell growth required to establish HLA-DP5-restricted CD4^+ T-cell clones

Molecule: DKSMKVTVAFNQF-GPN-EG2-TAMRA [NF-pCj1–TAMRA]
uptake versus concentration in the medium (in words) [2]: proportional to its concentration in the medium | amount of surface-displayed peptide per cell versus concentration (in words) ([1]; Alexa 647-labeled anti-TAMRA antibody MFI, 0.25–4 μM): nearly proportional to the peptide concentration in the range of 0.25–4 μM

Molecule: NF[S(P–2)E/K(P–3)E]-pCj1: double mutation of Ser(–2) and Lys(–3) to Glu in a 13-residue Cry j 1 peptide (NF-pCj1) (DEEMKVTVAFNQF)
effect of NF mutation on T-cell activation / IL-2 production (in words) ([3]; vs WT NF-pCj1, HLA-DP5-mDC1s, 18 h): dramatically reduced

Molecule: DKSMKVTVAFNQF [NF-pCj1]
response of TCR-transfected TG40 cells by CD137^+ cell number (in words) [4]: responded to NF-pCj1 | CD4^+ T-cell proliferation and clone establishment (in words) (CD4^+ T cells): many CD4^+ T cells proliferating | cytokine production on stimulation (in words) [5]: produced IL-5, IL-10, and IL-13 | proliferative response of T-cell clones (in words) [6]: proliferated in response to NF-pCj1 | IL-2 production by TCR-TG40 cells (in words) ([3]; HLA-DP5-expressing mDC1s pulsed 3 h, coculture 18 h, peptide 7 µg ml^−1 (Fig. 5A), 0.5–15 µg ml^−1 (Fig. 5B, C)): produced IL-2 in response to NF-pCj1

Kd [7]: 90.1 µM | Kd [8]: 92.5 µM
Molecule: TCR(SU3–3)^ec αβ molecule (extracellular regions of the TCR(SU3–3) α chain, residues 1–209, and β chain, residues 1–245, with an artificial interchain disulfide bond) (from UniProt A0A0A6YYJ7)

binding result [9]: recognises | binding result [10]: no recognition
B1: TCR(NM-7) (TCR)
alpha TRAV12-3*01 TRAJ27*01 CDR3: CGANAGKSTF
beta TRBV30*01 TRBJ2-7*01 CDR3: CAWSVMVWGSEGEQYF

binding result [9]: recognises | binding result [11]: no recognition
B2: TCR(NM-4) (TCR)
alpha TRAV16*01 TRAJ48*01 CDR3: CALRSNFGNEKLTF
beta TRBV5-1*01 TRBJ2-2*01 CDR3: CASSLVVAGVYTGELFF

binding result [12]: recognises
B3: TCR(SU3–3) (TCR)
alpha TRAV8-3*01 TRAJ34*01 CDR3: CAVAPTYNTDKLIF
beta TRBV7-9*03 TRBJ2-2*01 CDR3: CASSSKGGAGELFF
